Laboratory results from patent US4954518A, “4H-1-benzopyran-4-one derivative or its salt, process for producing the same and pharmaceutical composition comprising the same as active ingredient” (Toyama Chemical Company, Ltd., priority 1987, dated 1990).

Test system: Adjuvant Arthritis
Experiment: Adjuvant-induced arthritis in rats (inhibitory activity)
Assay type: in vivo, male rats of Westar-Lewis strain
Settings: 1 mg/kg oral once a day, seven continuous days
Method: (2) Adjuvant-induced arthritis
This inhibitory activity was tested according to the method of E. M. Glenn [American Journal of Veterinary Research, vol. 27, p. 339 (1966)].
To male rats of Westar-Lewis strain (body weight: 190-230 g, 5 rats per group) was intradermally injected 0.1 ml of a suspension of heat-killed Mycobacterium tuberculosis in liquid paraffin at a concentration of 6 mg/ml as the adjuvant into the root of tail. Eighteen days after the adjuvant injection, the rats were classified based on the volume of both hind paws, and then a suspension of the test compound in 0.5% (w/v) aqueous carboxymethylcellulose solution was orally administered to the classified rats in a proportion of 1 ml/100 g of body weight once a day for seven continuous days (see Table 3) or four continuous days (see Table 4). On the day following the last administration, the volume of both hind paws was measured, and in the same manner as in (1) above, the inhibitory effect was determined. Incidentally, the result is shown in Tables 3 and 4 in terms of the inhibitory effect indicated below based on inhibition (x%).

Row | SMILES | Inhibitory effect (adjuvant arthritis, Table 3)
1 | COc1ccc2c(c1)c(CC(=O)O)c(C)n2C(=O)c1ccc(Cl)cc1 [IM, indomethacin, reference compound] | +++ (30 ≤ × < 40)

Same assay, conditions: 10 mg/kg oral once a day, seven continuous days

Row | SMILES | Inhibitory effect (adjuvant arthritis, Table 3)
2 | CC(=O)N(c1cc2occc(=O)c2cc1Oc1ccccc1)S(C)(=O)=O [Compound 96] | ++++ (× ≥ 40)
3 | Cc1cc(=O)c2cc(Oc3ccccc3)c(NS(C)(=O)=O)cc2o1 [Compound 9] | ++++ (× ≥ 40)
4 | CS(=O)(=O)Nc1cc2occc(=O)c2cc1Oc1ccc(F)cc1F [Compound 94, 6-(2,4-difluorophenoxy)-7-methylsulfonylamino-4H-1-benzopyran-4-one] | ++++ (× ≥ 40)
5 | CS(=O)(=O)Nc1cc2occc(=O)c2cc1Oc1ccccc1 [Compound 1, 7-methylsulfonylamino-6-phenoxy4H-1-benzopyran-4-one] | +++ (30 ≤ × < 40)

Same assay, conditions: Rattus norvegicus, po, read-out: Inhibitory effect (adjuvant arthritis, Table 4)

Row | SMILES | inhibition in vivo at 3 mg/kg
6 | COc1ccc2c(c1)c(CC(=O)O)c(C)n2C(=O)c1ccc(Cl)cc1 [IM, indomethacin, reference compound] | 30 to 40%

Same assay, conditions: Rattus norvegicus; 3 mg/kg oral once a day, four continuous days; read-out: Inhibitory effect (adjuvant arthritis, Table 4)

Row | SMILES | inhibition in vivo at 3 mg/kg
7 | Cc1ccccc1Oc1cc2c(=O)c(NC=O)coc2cc1NS(C)(=O)=O [Compound 46] | 20 to 30%
8 | CS(=O)(=O)Nc1cc2occ(NC=O)c(=O)c2cc1Oc1ccccc1F [Compound 34] | 30 to 40%
9 | CSc1coc2cc(NS(C)(=O)=O)c(Oc3ccccc3)cc2c1=O [Compound 4, 7-methylsulfonylamino-3-methylthio-6-phenoxy-4H-1-benzopyran-4-one] | 20 to 30%
10 | CS(=O)(=O)Nc1cc2occ(C(N)=O)c(=O)c2cc1Oc1ccccc1 [Compound 122] | 20 to 30%
11 | O=CNc1coc2cc(NS(=O)(=O)CCl)c(Oc3ccccc3)cc2c1=O [Compound 40] | 20 to 30%
12 | CS(=O)(=O)Nc1cc2occc(=O)c2cc1Nc1ccccc1 [Compound 12] | 30 to 40%
13 | CS(=O)(=O)Nc1cc2occ(NC=O)c(=O)c2cc1Oc1ccccc1 [Compound 99] | 20 to 30%
14 | CS(=O)(=O)Nc1cc2occ(NC=O)c(=O)c2cc1Oc1ccc(F)cc1F [Compound 39] | 20 to 30%

Same assay, conditions: Rattus norvegicus; 10 mg/kg oral once a day, four continuous days; read-out: Inhibitory effect (adjuvant arthritis, Table 4)

Row | SMILES | inhibition in vivo at 10 mg/kg
15 | CS(=O)(=O)Nc1cc2occ(NC=O)c(=O)c2cc1Sc1ccccc1 [Compound 88] | 20 to 30%
16 | CN(C=O)c1coc2cc(NS(C)(=O)=O)c(Oc3ccccc3)cc2c1=O [Compound 100] | 20 to 30%
17 | Cc1oc2cc(NS(C)(=O)=O)c(Oc3ccccc3)cc2c(=O)c1C(N)=O [Compound 61] | 30 to 40%
18 | CNc1coc2cc(NS(C)(=O)=O)c(Oc3ccccc3)cc2c1=O [Compound 101] | 20 to 30%

Test system: Carrageenin-Induced Paw Edema
Experiment: Carrageenin-induced paw edema in rats (inhibitory activity)
Assay type: in vivo, male rats of Donryu strain
Settings: Rattus norvegicus, po, 3 h, read-out: Inhibitory effect (carrageenin-induced paw edema)
Method: (1) Carrageenin-induced paw edema
This inhibitory activity was tested according to the method of C. A. Winter et al. [Proceedings of the Society for Experimental Biology and Medicine, vol.
After one hour, 0.1 ml of a 1% carrageenin was injected into the subplantar region of the left hind paw. Three hours after carrageenin injection, the paw volume was measured plethysmographically and the percent swelling was determined from the volume before injection and the inhibitory percentage was calculated according to the following equation: [formula]

Row | SMILES | inhibition in vivo at 10 mg/kg
19 | COc1ccc2c(c1)c(CC(=O)O)c(C)n2C(=O)c1ccc(Cl)cc1 [IM, indomethacin, reference compound] | > 40%

Same assay, conditions: Rattus norvegicus; 10 mg/kg oral, 1 h before carrageenin; paw volume 3 h after; read-out: Inhibitory effect (carrageenin-induced paw edema)

Row | SMILES | inhibition in vivo at 10 mg/kg
20 | Cc1ccccc1Oc1cc2c(=O)c(NC=O)coc2cc1NS(C)(=O)=O [Compound 46] | > 40%
21 | CC(=O)N(c1cc2occc(=O)c2cc1Oc1ccccc1)S(C)(=O)=O [Compound 96] | 30 to 40%
22 | CS(=O)(=O)Nc1cc2occ(NC=O)c(=O)c2cc1Oc1ccccc1F [Compound 34] | > 40%
23 | CSc1coc2cc(NS(C)(=O)=O)c(Oc3ccccc3)cc2c1=O [Compound 4, 7-methylsulfonylamino-3-methylthio-6-phenoxy-4H-1-benzopyran-4-one] | 20 to 30%
24 | CS(=O)(=O)Nc1cc2occ(C(N)=O)c(=O)c2cc1Oc1ccccc1 [Compound 122] | 20 to 30%
25 | Cc1cc(=O)c2cc(Oc3ccccc3)c(NS(C)(=O)=O)cc2o1 [Compound 9] | 20 to 30%
26 | CS(=O)(=O)Nc1cc2occ(NC=O)c(=O)c2cc1Sc1ccccc1 [Compound 88] | 30 to 40%
27 | CN(C=O)c1coc2cc(NS(C)(=O)=O)c(Oc3ccccc3)cc2c1=O [Compound 100] | > 40%
28 | O=CNc1coc2cc(NS(=O)(=O)CCl)c(Oc3ccccc3)cc2c1=O [Compound 40] | > 40%
29 | CS(=O)(=O)Nc1cc2occc(=O)c2cc1Nc1ccccc1 [Compound 12] | 30 to 40%
30 | CS(=O)(=O)Nc1cc2occc(=O)c2cc1Oc1ccc(F)cc1F [Compound 94, 6-(2,4-difluorophenoxy)-7-methylsulfonylamino-4H-1-benzopyran-4-one] | 30 to 40%
31 | CS(=O)(=O)Nc1cc2occ(NC=O)c(=O)c2cc1Oc1ccccc1 [Compound 99] | > 40%
32 | CS(=O)(=O)Nc1cc2occc(=O)c2cc1Oc1ccccc1 [Compound 1, 7-methylsulfonylamino-6-phenoxy4H-1-benzopyran-4-one] | 30 to 40%
33 | Cc1oc2cc(NS(C)(=O)=O)c(Oc3ccccc3)cc2c(=O)c1C(N)=O [Compound 61] | 15 to 20%
34 | CNc1coc2cc(NS(C)(=O)=O)c(Oc3ccccc3)cc2c1=O [Compound 101] | 30 to 40%
35 | CS(=O)(=O)Nc1cc2occ(NC=O)c(=O)c2cc1Oc1ccc(F)cc1F [Compound 39] | > 40%

Test system: mice
Experiment: Oral acute toxicity in mice
Assay type: in vivo, ICR strain male mice
Settings: mouse, in vivo, po, 500 mg/kg
Method: (§1) ICR strain male mice (body weight: 20-25 g, […], 3 mice per group) were tested for oral acute toxicity. A test compound suspended in 0.5% (w/v) aqueous carboxymethylcellulose solution was orally administered to the mice in a proportion of 0.2 ml/10 g of body weight. After the administration, general symptom was observed over one week.

Row | SMILES | behavioural changes
36 | Cc1ccccc1Oc1cc2c(=O)c(NC=O)coc2cc1NS(C)(=O)=O [Compound 46] | no behavioural changes were observed
37 | CS(=O)(=O)Nc1cc2occ(NC=O)c(=O)c2cc1Oc1ccccc1F [Compound 34] | no behavioural changes were observed
38 | CS(=O)(=O)Nc1cc2occc(=O)c2cc1Oc1ccc(F)cc1F [Compound 94, 6-(2,4-difluorophenoxy)-7-methylsulfonylamino-4H-1-benzopyran-4-one] | no behavioural changes were observed
39 | CS(=O)(=O)Nc1cc2occ(NC=O)c(=O)c2cc1Oc1ccccc1 [Compound 99] | no behavioural changes were observed
40 | CS(=O)(=O)Nc1cc2occc(=O)c2cc1Oc1ccccc1 [Compound 1, 7-methylsulfonylamino-6-phenoxy4H-1-benzopyran-4-one] | no behavioural changes were observed
41 | CS(=O)(=O)Nc1cc2occ(NC=O)c(=O)c2cc1Oc1ccc(F)cc1F [Compound 39] | no behavioural changes were observed

Same assay, conditions: oral, dose of 500 mg/kg, observed over one week

Row | SMILES | death cases
42 | Cc1ccccc1Oc1cc2c(=O)c(NC=O)coc2cc1NS(C)(=O)=O [Compound 46] | no death case was found
43 | CS(=O)(=O)Nc1cc2occ(NC=O)c(=O)c2cc1Oc1ccccc1F [Compound 34] | no death case was found
44 | CS(=O)(=O)Nc1cc2occc(=O)c2cc1Oc1ccc(F)cc1F [Compound 94, 6-(2,4-difluorophenoxy)-7-methylsulfonylamino-4H-1-benzopyran-4-one] | no death case was found
45 | CS(=O)(=O)Nc1cc2occ(NC=O)c(=O)c2cc1Oc1ccccc1 [Compound 99] | no death case was found
46 | CS(=O)(=O)Nc1cc2occc(=O)c2cc1Oc1ccccc1 [Compound 1, 7-methylsulfonylamino-6-phenoxy4H-1-benzopyran-4-one] | no death case was found
47 | CS(=O)(=O)Nc1cc2occ(NC=O)c(=O)c2cc1Oc1ccc(F)cc1F [Compound 39] | no death case was found

Test system: not listed separately
Experiment: Oral acute toxicity in mice
Assay type: in vivo, ICR strain male mice
Settings: mouse, in vivo; oral, mice
Method: as §1

Row | SMILES | LD50 at 168 h
48 | COc1ccc2c(c1)c(CC(=O)O)c(C)n2C(=O)c1ccc(Cl)cc1 [IM, indomethacin, reference compound] | 25 mg/kg

Test system: not listed separately
Experiment: Ulcerogenic effect in rats
Set-up: species or system male rats of Wister strain
Settings: rat, in vivo, po
Method: To male rats of Wister strain (body weight: 180-230 g, 7 to 8 rats per group) which had been fasted for 24 hours with free access to water was orally administered a test compound suspended in 0.5% (w/v) aqueous carboxymethylcellulose solution in a proportion of 1 ml/100 g of body weight. The rats were allowed to stand under abstinence from food and water for 24 hours, and thereafter, sacrificed by dislocation of cervical vertebrae, after which the stomach was removed and fixed in 1% (v/v) formaline solution for 30 minutes. This stomach was split along the greater curvature and the length (mm) of the erosion and ulcer formed on the gastric mucosa was measured by a stereomicroscope, and the total sum of the lengths (lmm) was determined, from which ulcerogenic index was assessed based on the following arbitrary scale:
Subsequently, UD50 (mg/kg) which is the dose of the test compound which induces ulcerogenic index 5 was determined on each test compound.
*Rats were allowed to stand for 5 hours under abstinence from food and […]

Row | SMILES | TD50 at 24 h | TD50 at 5 h
49 | Cc1ccccc1Oc1cc2c(=O)c(NC=O)coc2cc1NS(C)(=O)=O [Compound 46] | > 500 mg/kg | –
50 | CS(=O)(=O)Nc1cc2occ(NC=O)c(=O)c2cc1Oc1ccccc1F [Compound 34] | > 500 mg/kg | –
51 | CS(=O)(=O)Nc1cc2occc(=O)c2cc1Oc1ccc(F)cc1F [Compound 94, 6-(2,4-difluorophenoxy)-7-methylsulfonylamino-4H-1-benzopyran-4-one] | – | > 300 mg/kg
52 | CS(=O)(=O)Nc1cc2occ(NC=O)c(=O)c2cc1Oc1ccccc1 [Compound 99] | > 500 mg/kg | –
53 | CS(=O)(=O)Nc1cc2occc(=O)c2cc1Oc1ccccc1 [Compound 1, 7-methylsulfonylamino-6-phenoxy4H-1-benzopyran-4-one] | – | > 300 mg/kg
54 | CS(=O)(=O)Nc1cc2occ(NC=O)c(=O)c2cc1Oc1ccc(F)cc1F [Compound 39] | > 500 mg/kg | –

Same assay, conditions: rat, in vivo; oral; 24 hours under abstinence from food and water; read-out: UD50 (dose which induces ulcerogenic index 5)

Row | SMILES | TD50 at 24 h
55 | COc1ccc2c(c1)c(CC(=O)O)c(C)n2C(=O)c1ccc(Cl)cc1 [IM, indomethacin, reference compound] | 4.3 mg/kg
